Results taken from PubChem BioAssay AID1963865 (Molecular Pharmacology Branch, DTP, NCI, 2024).

Tested on: KRAS PDC multicell spheroid viability
Assay: Anticancer human tumor 825966-067-R-J1-PDC patient-derived colon carcinoma cell line growth inhibition [KRAS2]
Settings: for viability, T/C: stronger effect = lower value
Text: Multicellular complex tumor spheroid response to RAS pathway inhibitors in combination with a targeted agents in patient-derived cell lines with oncogenic KRAS variants from multiple cancer types
A high-throughput screen of multi-cell type tumor spheroids was designed to identify active combinations of targeted small molecules and KRAS pathway inhibitors. Complex spheroids include a stromal component modeled by human endothelial cells (HUVEC) and fibroblasts modeled by human mesenchymal stem cells (MSCs). The concentration ranges selected for each drug and investigational agent were based upon clinically achievable concentrations if the clinical Cmax of the agent was known.
Compounds. The drugs and investigational agents: BI-3406 (NSC825286), BAY-293 (NSC824723), batoprotafib (TNO155; NSC825523), sotorasib (AMG 510; NSC818433), MRTX1257 (NSC819558), elimusertib (BAY 1895344; NSC800525), molibresib (GSK525762; NSC774829), temuterkib (LY3214996; NSC803410), venetoclax (NSC766270), alisertib (NSC759677), olaparib (NSC753686), talazoparib (NSC767125), erdafitinib (NSC781556), ipatasertib (NSC767898), cabozantinib (NSC761068), nintedanib (NSC756659), abemaciclib (NSC768073), docetaxel (NSC628503), trametinib (NSC758246), and sapanisertib (NSC764658) were obtained from the National Cancer Institute (NCI) Developmental Therapeutics Program Chemical Repository. The FDA-approved anticancer drug set is available from the Developmental Therapeutics Program. […] The stock solutions were prepared in dimethyl sulfoxide (DMSO, Sigma-Aldrich, St. Louis, MO, cat. D2650) at 800-fold the tested concentration and stored at -70 degrees C prior to their use. All drugs and investigational agents were tested over a range starting from a high concentration at or near the clinical Cmax and decreasing in half-log increments. If the clinical Cmax for an agent had not been determined, the highest concentration tested was 10 microM.
Cell Culture. All cells were maintained in an incubator at 37 degrees C and 5% CO2 with 95% humidity. The PDC lines were cultured according to standard operating procedures established by the NCI PDMR (https://pdmr.cancer.gov/sops/default.htm). Briefly, all PDCs were thawed and cultured in Matrigel-coated flasks prepared with a working solution of 1X Ham's F-12 nutrient mix, without supplementation (Invitrogen, Waltham, MA, cat. 11765054), 100 U/mL penicillin-streptomycin (Invitrogen, cat. 15140122), and 2.5% Matrigel (Corning Inc., Corning, NY, cat. 354248) for the first three passages. All PDCs were cultured in complete DMEM/F-12 media containing advanced DMEM/F-12 (Invitrogen, cat. 12634028), 4.9% defined fetal bovine serum, heat inactivated (HyClone Laboratories Inc., Logan, UT, cat. SH30070.03HI), 389 ng/mL hydrocortisone (Sigma-Aldrich, cat. H4001), 9.7 ng/mL human EGF recombinant protein (Invitrogen, cat. PHG0313), 23.4 microg/mL adenine (Sigma-Aldrich, cat. A2786), 97.3 U/mL penicillin-streptomycin (Invitrogen, cat. 15140122), 1.9 mM L-glutamine (Invitrogen, cat. 25030081), and 9.7 microM Y-27632 dihydrochloride (Tocris Bioscience, Bristol, United Kingdom, cat. 1254). The PDCs were cultured in complete DMEM/F12 media without 9.7 microM Y-27632 dihydrochloride for at least two passages prior to the screen. The established cell line HOP-62 was cultured in RPMI 1640 medium, HEPES (Invitrogen, cat. 22400105) with 10% defined fetal bovine serum (HyClone Laboratories Inc., cat. SH30070.03) and 2 mM L-glutamine (Invitrogen, cat. 25030081). The pooled donor HUVEC were cultured in endothelial cell growth medium 2 (PromoCell, Heidelberg, Germany, cat. C-22011) and the hMSC were cultured in mesenchymal stem cell growth medium 2 (PromoCell, cat. C-28009). For all experiments, HUVEC and hMSC were used at passages </=5, while the malignant cell lines were used at passages </=15. […]

[1] = curve of first compound, second compound 0.1 µM
[2] = curve of first compound, second compound 0.316 µM
[3] = curve of first compound, second compound 1 µM
[4] = curve of first compound, second compound 3.16 µM
[5] = second compound 0.1 µM, first compound 0.000316 µM
[6] = second compound 0.1 µM, first compound 0.001 µM
[7] = second compound 0.1 µM, first compound 0.00316 µM
[8] = second compound 0.1 µM, first compound 0.01 µM
[9] = second compound 0.1 µM, first compound 0.0316 µM
[10] = second compound 0.1 µM, first compound 0.1 µM
[11] = second compound 0.316 µM, first compound 0.000316 µM
[12] = second compound 0.316 µM, first compound 0.001 µM
[13] = second compound 0.316 µM, first compound 0.00316 µM
[14] = second compound 0.316 µM, first compound 0.01 µM
[15] = second compound 0.316 µM, first compound 0.0316 µM
[16] = second compound 0.316 µM, first compound 0.1 µM
[17] = second compound 1 µM, first compound 0.000316 µM
[18] = second compound 1 µM, first compound 0.001 µM
[19] = second compound 1 µM, first compound 0.00316 µM
[20] = second compound 1 µM, first compound 0.01 µM
[21] = second compound 1 µM, first compound 0.0316 µM
[22] = second compound 1 µM, first compound 0.1 µM
[23] = second compound 3.16 µM, first compound 0.000316 µM
[24] = second compound 3.16 µM, first compound 0.001 µM
[25] = second compound 3.16 µM, first compound 0.00316 µM
[26] = second compound 3.16 µM, first compound 0.01 µM
[27] = second compound 3.16 µM, first compound 0.0316 µM
[28] = second compound 3.16 µM, first compound 0.1 µM
[29] = curve of first compound, second compound 10 µM
[30] = second compound 10 µM, first compound 0.000316 µM
[31] = second compound 10 µM, first compound 0.001 µM
[32] = second compound 10 µM, first compound 0.00316 µM
[33] = second compound 10 µM, first compound 0.01 µM
[34] = second compound 10 µM, first compound 0.0316 µM
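Further: spheroids exposed to compounds for 7 days.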
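Wherever viability, T/C is given: 100% = DMSO vehicle control viability.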

Row | SMILES | IC50 [1] [nM] | IC50 [2] [nM] | IC50 [3] [nM] | IC50 [4] [nM] | viability, T/C [5] [%] | viability, T/C [6] [%] | viability, T/C [7] [%] | viability, T/C [8] [%] | viability, T/C [9] [%] | viability, T/C [11] [%] | viability, T/C [12] [%] | viability, T/C [13] [%] | viability, T/C [14] [%] | viability, T/C [15] [%] | viability, T/C [17] [%] | viability, T/C [18] [%] | viability, T/C [19] [%] | viability, T/C [20] [%] | viability, T/C [21] [%] | viability, T/C [23] [%] | other results
1 | Cn1ncnc1[C@H]1c2n[nH]c(=O)c3cc(F)cc(c23)N[C@@H]1c1ccc(F)cc1 + C=CC(=O)N1CCN(c2nc(OCC3CCCN3C)nc3c2CCN(c2cccc4cccc(C)c24)C3)CC1CC#N | > 100 | > 100 | > 100 | > 100 | 86.3 | 106 | 119 | 80 | 81.5 | 120 | 103 | 133 | 88.1 | 91.4 | 127 | 103 | 98.6 | 91.3 | 112 | 86.5 | IC50 (curve of first compound, second compound 0.0316 µM): > 100 nM; viability, T/C (second compound 0.0316 µM, first compound 0.000316 µM): 108%; viability, T/C (second compound 0.0316 µM, first compound 0.001 µM): 108%; viability, T/C (second compound 0.0316 µM, first compound 0.00316 µM): 91.5%; viability, T/C (second compound 0.0316 µM, first compound 0.01 µM): 78%; viability, T/C (second compound 0.0316 µM, first compound 0.0316 µM): 85.2%; viability, T/C (second compound 0.0316 µM, first compound 0.1 µM): 82.5%; viability, T/C [10]: 77%; viability, T/C [16]: 82.5%; viability, T/C [22]: 98.9%; viability, T/C [24]: 123%; viability, T/C [25]: 112%; viability, T/C [26]: 120%; viability, T/C [27]: 84.6%; viability, T/C [28]: 102%
2 | CC(=O)Nc1cccc(-n2c(=O)n(C3CC3)c(=O)c3c(Nc4ccc(I)cc4F)n(C)c(=O)c(C)c32)c1 + C=CC(=O)N1CCN(c2nc(=O)n(-c3c(C)ccnc3C(C)C)c3nc(-c4c(O)cccc4F)c(F)cc23)C(C)C1 | 17 | 22.8 | > 31.6 | 27.5 | 84.9 | 99.5 | 128 | 72.5 | 23.7 | 82.7 | 111 | 129 | 95.6 | 31.8 | 89.4 | 99.8 | 114 | 102 | 52.5 | 97.7 | IC50 [29]: 14.1 nM; viability, T/C (second compound 0.1 µM, first compound 0.0001 µM): 91.9%; viability, T/C (second compound 0.316 µM, first compound 0.0001 µM): 84.8%; viability, T/C (second compound 1 µM, first compound 0.0001 µM): 92.2%; viability, T/C (second compound 3.16 µM, first compound 0.0001 µM): 72.2%; viability, T/C [24]: 95.4%; viability, T/C [25]: 97.3%; viability, T/C [26]: 80.2%; viability, T/C [27]: 45.9%; viability, T/C (second compound 10 µM, first compound 0.0001 µM): 81.3%; viability, T/C [30]: 89.5%; viability, T/C [31]: 77.3%; viability, T/C [32]: 101%; viability, T/C [33]: 55.2%; viability, T/C [34]: 37.6%
3 | CC(C)n1nc(-c2ccc3oc(N)nc3c2)c2c(N)ncnc21 | – | – | – | – | – | – | – | – | – | – | – | – | – | – | – | – | – | – | – | – | viability, T/C (compound 0.00316 µM): 127% [middle of 5 runs]; IC50 (curve of compound): > 100 nM
4 | Cn1ncnc1[C@H]1c2n[nH]c(=O)c3cc(F)cc(c23)N[C@@H]1c1ccc(F)cc1 + CC1OCC2(CCN(c3cnc(Sc4ccnc(N)c4Cl)c(N)n3)CC2)C1N | > 100 | > 100 | > 100 | > 100 | 109 | 82 | 85.6 | 71.5 | 74.8 | 110 | 99.8 | 103 | 106 | 89.6 | 87 | 109 | 80 | 104 | 78.5 | 93.3 | IC50 [29]: < 0.316 nM; viability, T/C [10]: 64.7%; viability, T/C [16]: 69.7%; viability, T/C [22]: 79.6%; viability, T/C [24]: 80.7%; viability, T/C [25]: 86.8%; viability, T/C [26]: 80%; viability, T/C [27]: 87.1%; viability, T/C [28]: 85%; viability, T/C [30]: 55.1%; viability, T/C [31]: 18.3%; viability, T/C [32]: 31.5%; viability, T/C [33]: 43.9%; viability, T/C [34]: 37.2%; viability, T/C (second compound 10 µM, first compound 0.1 µM): 18.1%
